pIC50: −log10 of the molar value.
What was measured:
[1] = molecular target: T1, APOL1 G1 (Homo sapiens, UniProt O14791, I384M/S342G); experiment: Trypanosoma brucei brucei Lysis Assay Using APOL1 Recombinant Protein (AlamarBlue viability readout); assay type: cell-based; settings: Trypanosome Assay; for pIC50: IP50 = IC50 for cell proliferation, read-out: Trypanosome Assay IP50; for Emax: read-out: Trypanosome Assay Max Activity (%)
T1 sequence (O14791 28-398 S342G/I384M): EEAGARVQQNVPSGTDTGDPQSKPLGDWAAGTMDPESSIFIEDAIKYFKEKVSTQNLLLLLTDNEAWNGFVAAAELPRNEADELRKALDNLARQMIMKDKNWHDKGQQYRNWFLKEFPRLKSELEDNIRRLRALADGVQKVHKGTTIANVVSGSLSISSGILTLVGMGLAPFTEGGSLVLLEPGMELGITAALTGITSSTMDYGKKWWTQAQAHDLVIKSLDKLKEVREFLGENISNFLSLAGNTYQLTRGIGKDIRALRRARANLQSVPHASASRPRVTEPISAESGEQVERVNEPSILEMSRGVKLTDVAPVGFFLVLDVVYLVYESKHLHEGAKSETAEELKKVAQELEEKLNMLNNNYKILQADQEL
Text: Trypanosoma brucei brucei is a blood stream parasite to which human, gorillas, and baboons are immune due to the presence of the APOL1 protein in their HDL particles. The protein is uptaken by the parasite via the TbHpHb receptor located in its flagellar pocket and is bonded by the Hpr protein contained in the HDL particles which triggers the receptor endocytosis by the parasite.
Following endocytosis, the formed vesicle containing the HDL particle matures from early to late endosome, and subsequently to lysosome. The concomitant pH change in the lumen of the vesicle triggers the insertion of the APOL1 protein into the membrane of the late endosome/lysosome and hereby triggers lysosomal membrane permeabilization and as a further downstream event, trypanosome lysis. Trypanosoma brucei brucei is sensitive to lysis by all three APOL1 variants (G0, G1, and G2).
The Trypanosoma brucei brucei lysis assay is a lysis assay of the parasite using recombinant APOL1 protein variant followed by a fluorescent detection method of viability by the addition of AlamarBlue reagent to the assay well, a general metabolic redox indicator (AlamarBlue assay).
Briefly, the AlamarBlue active compound, resazurin, a blue, water soluble, non-toxic and cell permeable molecule, which can be followed by absorbance, is reduced by various metabolic pathways into resorufin, a red compound which can be followed by either absorbance or fluorescence. The assay allows the calculation of the percent viability (percent of living Trypanosomes remaining in each well) at the end of a lysis relative to the untreated condition by interpolation of fluorescent values (FLU) on a standard curve with a known amount of seeded trypanosome/well.
Trypanosoma brucei brucei (ATCC, Cat. No. PRA-382)
• Lister 427 VSG 221 bloodstream form.
Equipment • E1-Clip Tip pipette 12 channel adjustable 2-125 μL, Cat. No. 4672070BT • ThermoFisher MultiDrop 384, Cat. No. 5840300 • Multidrop • Agilent Bravo, Cat. No. G5409A • Bravo • SpectraMax M5 Assay Ready Plates (ARPs) • ARPs comes in two formats: • […] final top concentration with a 2.5 fold dilution down. • […] final top concentration with a 3 fold dilution down. • Both have a 10 point Dose response. • 0.1% DMSO final in the Black Assay Plate. • Compounds are diluted 1000 fold in the Black Assay Plate. • Each plate is designed for 14 compounds in duplicate. • In the final Black Assay Plate: • Column 1: Media only (no APOL1) (100% viable) • Column 2-23: 0.05 μg/mL APOL1 (˜EC90) (10% viable with APOL1) • Column 24: 0.1 μg/mL APOL1 (EC100) (Approx. […] Step 2, Day 4 • Centrifuge at 800×g for 5 minutes at room temperature. • Resuspend in 1 mL media. • Make a 1:25 fold dilution (10 μL/240 μL media). • Count on a hemocytometer (after adding parasites). • Let sit for 1-2 minutes for the parasites to settle. • Count should be approximately 100 viable motile parasites/16 grid or approximately 25×10^6 parasites/flask. • Passage the parasites by adding 1×10^6 parasites/T75 flask in 20 mL media. • Passage the parasites by adding 2.33×10^6 parasites/T175 flask in 46.6 mL media. • For every T75 flask should make enough for approximately 1.5×384 well assay plates. • For every T175 flask should make enough for approximately 3.8×384 well assay plates. Step 3, Day 6 • Centrifuge at 800×g for 5 minutes. • Resuspend in 3 mL assay media (No phenol red, no FBS) per 75 starting flask. • Resuspend in 7 mL assay media (No phenol red, no FBS) per 175 flask • Make a 1:25 fold dilution. • Count by hemocytometer. • Every T75 flask set up should have approximately 75×10^6 parasites/flask (verify doubling time=8.7 hours±1 hour). • Every T175 flask set up should have approximately 175×10^6 parasites/flask (verify doubling time=8.7 hours±1 hour). • Require 46×10^6 parasites per 384 well plate (at 120,000 parasites per well). […]

[2] = molecular target: T2, APOL1 (Homo sapiens, UniProt O14791); experiment: Multi-Tox Assay (MultiTox-Fluor Multiplex Cytotoxicity Assay in tet-inducible APOL1 T-REx-HEK293 cells; Table 46 does not say which APOL1 variant G0/G1/G2); assay type: cell-based; settings: APOL1 variant not given; for pIC50: IP50 = IC50 for cell proliferation
T2 sequence (O14791 1-398 S342G/I384M): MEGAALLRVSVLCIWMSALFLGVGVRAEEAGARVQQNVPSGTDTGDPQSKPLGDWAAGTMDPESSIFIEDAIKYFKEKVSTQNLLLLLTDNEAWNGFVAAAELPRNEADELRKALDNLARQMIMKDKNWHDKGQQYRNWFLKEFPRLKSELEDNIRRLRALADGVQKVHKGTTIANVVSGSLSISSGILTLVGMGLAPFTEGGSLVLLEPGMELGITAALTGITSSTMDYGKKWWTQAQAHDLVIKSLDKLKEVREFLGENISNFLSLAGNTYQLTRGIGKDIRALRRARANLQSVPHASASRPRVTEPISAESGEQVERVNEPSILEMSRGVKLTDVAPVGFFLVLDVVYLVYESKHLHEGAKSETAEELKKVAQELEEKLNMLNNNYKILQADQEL

| SMILES | pIC50 [1] | Emax [1] [%] | pIC50 [2] | Multi-Tox Assay Max Activity (%) [2] [%] | Trypanosome Assay Max Activity (%) [1] [%] | IC90 [2] [nM] |
| --- | --- | --- | --- | --- | --- | --- |
| C[C@H]1C[C@@]2(C[C@@H](c3cn(C)nn3)N1)OC[C@@H](O)c1cc(Cl)sc12 [Compound 174, (2′S,4S,6′S,7S)-2-chloro-2′-methyl-6′-(1-methyltriazol-4-yl)spiro[4,5-dihydrothieno[2,3-c]pyran-7,4′-piperidine]-4-ol] | > 7.30 | 104 | > 7.30 | – | – | – |
| Cc1cc([C@@H]2C[C@]3(C[C@H](C)N2)OCCc2cc(Cl)sc23)ccc1O (racemic) [Compound 108] | > 7.30 | 94.5 | > 7.30 | 99.0 | – | – |
| COc1ccccc1-c1ncc([C@@H]2C[C@]3(C[C@H](C)N2)OCCc2cc(Cl)sc23)cn1 (racemic) [Compound 105] | > 7.30 | 72 | > 7.30 | 99.3 | – | – |
| C[C@H]1CC2(C[C@H](C)N1)OCCc1sc(C(F)(F)F)cc12 (stereo partly drawn) [Compound 195] | < 6.30 | 50.7 | < 6.30 | – | – | – |
| CCOc1ccc([C@@H]2C[C@]3(C[C@H](C)N2)OCCc2cc(Cl)sc23)cc1O (racemic) [Compound 107] | > 7.30 | 92.5 | > 7.30 | 99.7 | – | – |
| C[C@H]1C[C@@]2(C[C@@H](c3cn(C)nn3)N1)OCCc1sc(C(F)(F)F)cc12 [Compound 8, (2′S,4S,6′S)-2′-methyl-6′-(1-methyltriazol-4-yl)-2-(trifluoromethyl)spiro[6,7-dihydrothieno[3,2-c]pyran-4,4′-piperidine]] | 6.30 to 7.30 | 106 | > 7.30 | 100.0 | – | – |
| CC1CC2(CC(c3ccc4c(c3)OCC(=O)N4)N1)OCCc1cc(Cl)sc12 (stereo not drawn) [Compound 39] | > 7.30 | 116 | > 7.30 | – | – | – |
| C[C@H]1C[C@@]2(C[C@@H](c3ccnn3C)N1)OCCc1cc(Cl)sc12 (racemic) [Compound 152] | < 6.30 | 92.7 | 6.30 to 7.30 | 98.0 | – | – |
| CCc1cc2c(s1)C1(C[C@@H](c3cn(C)nn3)N[C@@H](C)C1)OCC2 (stereo in doubt) [Compound 6] | > 7.30 | 102 | > 7.30 | – | – | – |
| C[C@H]1C[C@@]2(C[C@@H](c3c[nH]c(C4CC4)n3)N1)OCCc1cc(Cl)sc12 (racemic) [Compound 130] | 6.30 to 7.30 | 102 | 6.30 to 7.30 | 99.0 | – | – |
| C[C@@H]1CC2(C[C@H](C)N1)OCCc1cc(CC(F)F)sc12 (single isomer, unassigned) [Compound 203] | > 7.30 | 102 | > 7.30 | – | – | – |
| Cn1cc(C2CC3(CC(C4CCC4)N2)OCCc2cc(C(F)(F)F)sc23)nn1 (stereo not drawn) [Compound 192] | 6.30 to 7.30 | 100 | 6.30 to 7.30 | – | – | – |
| C[C@H]1C[C@@]2(C[C@@H](c3cn(CC(N)=O)nn3)N1)OCCc1cc(Cl)sc12 (racemic) [Compound 133] | 6.30 to 7.30 | 111 | 6.30 to 7.30 | 99.7 | – | – |
| C[C@H]1C[C@@]2(C[C@@H](c3cnc(C4CC4)nc3)N1)OCCc1cc(Cl)sc12 (racemic) [Compound 52] | > 7.30 | 104 | > 7.30 | 99.7 | – | – |
| CCc1cc2c(s1)C(C)COC21C[C@@H](c2cn(C)nn2)N[C@@H](C)C1 (stereo in doubt) [Compound 11] | > 7.30 | – | > 7.30 | 99.3 | 101.5 | < 50 |
| Cc1nocc1[C@@H]1C[C@]2(C[C@H](C)N1)OCCc1cc(Cl)sc12 (racemic) [Compound 132] | 6.30 to 7.30 | 91.5 | 6.30 to 7.30 | 99.3 | – | – |
| C[C@H]1C[C@@]2(C[C@@H](c3cc4n(n3)CCCO4)N1)OCCc1cc(Cl)sc12 (racemic) [Compound 131] | 6.30 to 7.30 | 111 | 6.30 to 7.30 | 99.3 | – | – |
| COc1ccc2[nH]c([C@@H]3C[C@]4(C[C@H](C)N3)OCCc3cc(Cl)sc34)cc2n1 (racemic) [Compound 84] | > 7.30 | 112 | > 7.30 | – | – | – |
| Cc1ccnc([C@@H]2C[C@]3(C[C@H](C)N2)OCCc2cc(Cl)sc23)c1 (racemic) [Compound 139] | < 6.30 | 98.3 | 6.30 to 7.30 | 98.0 | – | – |
| C[C@H]1C[C@@]2(C[C@@H](c3cn(C)nn3)N1)OCC(O)(C(F)F)c1cc(Cl)sc12 (single isomer, unassigned) [Compound 184] | 6.30 to 7.30 | – | > 7.30 | – | – | – |
| C[C@H]1C[C@@]2(C[C@@H](c3cnn(C)c3)N1)OCCc1cc(Cl)sc12 [Compound 19, (2S)-2-chloro-2′-methyl-6′-(1-methylpyrazol-4-yl)spiro[4,5-dihydrothieno[2,3-c]pyran-7,4′-piperidine]] | > 7.30 | 107 | > 7.30 | – | – | – |
| CCOc1ccc([C@@H]2C[C@]3(C[C@H](C)N2)OCCc2cc(Cl)sc23)nc1 (racemic) [Compound 69] | > 7.30 | 110 | > 7.30 | – | – | – |
| C[C@H]1C[C@@]2(C[C@@H](c3cc(C(F)(F)F)[nH]n3)N1)OCCc1cc(Cl)sc12 (stereo in doubt) [Compound 119] | 6.30 to 7.30 | 97.5 | > 7.30 | 99.7 | – | – |
| Cc1cc([C@@H]2C[C@]3(C[C@H](C)N2)OCCc2cc(Cl)sc23)no1 (racemic) [Compound 29] | > 7.30 | 109 | > 7.30 | 100.0 | – | < 50 |
| C[C@H]1C[C@@]2(C[C@@H](c3cn(C)nn3)N1)OCCc1cc(C(F)(F)F)sc12 [Compound 2, (2′S,6′S,7S)-2′-methyl-6′-(1-methyltriazol-4-yl)-2-(trifluoromethyl)spiro[4,5-dihydrothieno[2,3-c]pyran-7,4′-piperidine]] | > 7.30 | 117 | > 7.30 | – | – | – |

From US12421249B2, “Inhibitors of APOL1 and methods of using same” (Vertex Pharmaceuticals Incorporated, priority 2020, dated 2025)
